Tests used:
vanilloid receptor (VR1) = molecular target: T1, vanilloid receptor (VR1) (Homo sapiens, UniProt Q8NER1); assay: Functional testing on vanilloid receptor (VR1): FLIPR Ca2+ inflow assay in CHO K1 cells stably transfected with the VR1 gene; type: cell-based; conditions: for inhibition at 10 µM: CHO-K1, inhibition compared to 10 μM CP (capsaicin); for activation at 10 µM: CHO-K1, stimulation compared to 10 μM CP (capsaicin)
T1 construct: expressed in transfected cells; host or cells: CHO K1 cells (ECACC), stably transfected
T1 sequence (Q8NER1 whole entry): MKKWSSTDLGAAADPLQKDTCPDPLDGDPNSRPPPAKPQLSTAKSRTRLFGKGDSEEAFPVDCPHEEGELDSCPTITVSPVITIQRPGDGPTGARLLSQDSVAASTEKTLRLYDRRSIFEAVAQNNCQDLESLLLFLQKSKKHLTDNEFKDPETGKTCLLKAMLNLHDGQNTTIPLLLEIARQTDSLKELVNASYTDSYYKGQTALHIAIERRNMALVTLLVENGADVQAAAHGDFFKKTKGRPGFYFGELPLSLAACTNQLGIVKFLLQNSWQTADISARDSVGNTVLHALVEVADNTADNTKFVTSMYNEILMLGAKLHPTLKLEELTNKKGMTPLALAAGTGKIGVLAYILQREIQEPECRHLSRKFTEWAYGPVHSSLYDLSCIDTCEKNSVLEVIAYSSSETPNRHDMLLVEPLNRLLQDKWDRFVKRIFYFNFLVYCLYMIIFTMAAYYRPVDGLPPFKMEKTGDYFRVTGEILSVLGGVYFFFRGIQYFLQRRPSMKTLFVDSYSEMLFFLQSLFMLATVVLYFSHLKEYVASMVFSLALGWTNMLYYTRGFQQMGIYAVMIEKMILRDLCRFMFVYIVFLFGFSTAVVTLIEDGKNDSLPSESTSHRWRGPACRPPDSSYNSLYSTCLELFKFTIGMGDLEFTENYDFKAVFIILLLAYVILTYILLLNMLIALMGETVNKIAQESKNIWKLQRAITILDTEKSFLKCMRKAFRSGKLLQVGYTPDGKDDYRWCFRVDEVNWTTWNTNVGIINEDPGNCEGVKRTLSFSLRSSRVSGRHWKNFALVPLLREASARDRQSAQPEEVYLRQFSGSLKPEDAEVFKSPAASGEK
Excerpt: II. Functional Testing Carried Out on the Vanilloid Receptor (VR1)
The agonistic or antagonistic effect of the substances to be tested can also be determined on the vanilloid receptor (VR1) using the following assay. According to this assay, the Ca^2+ inflow is quantified through the channel using a Ca^2+-sensitive dye (type Fluo-4, Molecular Probes Europe BV, Leiden, Netherlands) in a fluorescent imaging plate reader (FLIPR, Molecular Devices, Sunnyvale, USA).
Chinese hamster ovary cells (CHO K1 cells, European Collection of Cell Cultures (ECACC) United Kingdom) were stably transfected with the VR1 gene. For functional testing, these cells were plated out on poly-D-lysine-coated black 96 well plates having a clear base (BD Biosciences, Heidelberg, Germany) at a density of 25,000 cells/well. The cells were incubated overnight at 37° C. and 5% CO2 in a culture medium (Ham's F12 nutrient mixture, 10% by volume of FCS (foetal calf serum), 18 μg/ml L-proline). The next day the cells were incubated with Fluo-4 (Fluo-4 2 μM, 0.01% by volume of Pluronic F127, Molecular Probes in HBSS (Hank's buffered saline solution), Gibco Invitrogen GmbH, Karlsruhe, Germany) for 30 minutes at 37° C. Subsequently, the plates were washed 3 times with HBSS buffer and after further incubation for 15 minutes at room temperature used for Ca^2+ measurement in a FLIPR assay. The Ca^2+-dependent fluorescence was measured before and after the addition of the substances to be tested (λex wavelength=488 nm, λem=540 nm). Quantification was carried out by measuring the highest fluorescence intensity (FC, Fluorescence Counts) over time.
The FLIPR protocol consists of 2 substance additions. First the compounds to be tested (10 μM) were pipetted onto the cells and the Ca^2+ inflow was compared with the control (capsaicin 10 μM) (% activation based on the Ca^2+ signal after the addition of 10 μM capsaicin). After 5 minutes' incubation, 100 nM of capsaicin were administered and the Ca^2+ inflow was also determined.
Desensitising agonists and antagonists led to suppression of the Ca^2+ inflow. The % inhibition was calculated compared to the maximum achievable inhibition with 10 μM of capsaicin.

[1] = molecular target: T2, rat-species vanilloid receptor 1 (VR1/TRPV1) (Rattus norvegicus, UniProt O35433); assay: Functional testing on vanilloid receptor 1 (VR1/TRPV1): FLIPR Ca2+ inflow assay in rat dorsal root ganglia cells (% activation / % inhibition vs capsaicin); type: cell-based; conditions: for inhibition at 10 µM: inhibition compared to 10 μM CP (capsaicin); for activation at 10 µM: stimulation compared to 10 μM CP (capsaicin)
T2 construct: endogenous in cells; host or cells: primary cells dissociated from rat dorsal root ganglia (DRG)
T2 sequence (O35433 whole entry): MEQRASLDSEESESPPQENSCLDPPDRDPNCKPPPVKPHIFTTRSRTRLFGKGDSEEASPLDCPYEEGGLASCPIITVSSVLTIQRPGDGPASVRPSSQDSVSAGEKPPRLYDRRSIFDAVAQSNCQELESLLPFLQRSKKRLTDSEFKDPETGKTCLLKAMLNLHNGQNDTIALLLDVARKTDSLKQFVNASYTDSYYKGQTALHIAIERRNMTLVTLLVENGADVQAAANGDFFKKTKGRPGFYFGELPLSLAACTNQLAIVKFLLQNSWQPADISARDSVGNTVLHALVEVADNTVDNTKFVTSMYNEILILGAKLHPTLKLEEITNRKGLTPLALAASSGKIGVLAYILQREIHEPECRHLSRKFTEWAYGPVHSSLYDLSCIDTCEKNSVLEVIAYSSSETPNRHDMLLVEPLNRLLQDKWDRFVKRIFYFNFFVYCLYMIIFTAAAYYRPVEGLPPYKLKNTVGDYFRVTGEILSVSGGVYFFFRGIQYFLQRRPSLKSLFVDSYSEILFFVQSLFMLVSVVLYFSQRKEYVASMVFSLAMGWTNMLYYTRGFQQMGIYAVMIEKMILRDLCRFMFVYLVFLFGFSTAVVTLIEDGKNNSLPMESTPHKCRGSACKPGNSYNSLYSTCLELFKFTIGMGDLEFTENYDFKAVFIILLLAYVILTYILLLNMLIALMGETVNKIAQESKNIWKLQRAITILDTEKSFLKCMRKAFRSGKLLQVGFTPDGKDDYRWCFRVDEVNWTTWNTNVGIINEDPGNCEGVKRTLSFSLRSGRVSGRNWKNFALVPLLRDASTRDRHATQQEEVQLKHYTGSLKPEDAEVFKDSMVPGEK
Experimental: Preference may also be given to substituted spiro compounds according to the invention of general formula I which in a FLIPR assay in a concentration of 10 μM display inhibition of the Ca^2+ ion inflow in dorsal root ganglia of rats of at least 30%, preferably of at least 40%, particularly preferably of at least 50%, most particularly preferably of at least 70%, even more preferably of at least 90%, compared to the maximum achievable inhibition of the Ca^2+ ion inflow with capsaicin in a concentration of 10 μM.
In the FLIPR assay, the Ca^2+ inflow is quantified using a Ca^2+-sensitive dye (type Fluo-4, Molecular Probes Europe BV, Leiden, Netherlands) in a fluorescent imaging plate reader (FLIPR, Molecular Devices, Sunnyvale, USA), as described hereinafter.
I. Functional Testing Carried Out on the Vanilloid Receptor 1 (VR1/TRPV1 Receptor)
The agonistic or antagonistic effect of the substances to be tested can be determined on the rat-species vanilloid receptor 1 (VR1/TRPV1) using the following assay. According to this assay, the Ca^2+ inflow is quantified through the receptor channel using a Ca^2+-sensitive dye (type Fluo-4, Molecular Probes Europe BV, Leiden, Netherlands) in a fluorescent imaging plate reader (FLIPR, Molecular Devices, Sunnyvale, USA).
Complete medium: 50 mL HAMS F12 nutrient mixture (Gibco Invitrogen GmbH, Karlsruhe, Germany) with
10% by volume of FCS (foetal calf serum, Gibco Invitrogen GmbH, Karlsruhe, Germany, […]);
2 mM L-glutamine (Sigma, Munich, Germany);
1% by weight of AA solution (antibiotic/antimyotic solution, PAA, Pasching, Austria)
and 25 ng/ml NGF medium (2.5 S, Gibco Invitrogen GmbH, Karlsruhe, Germany)
Cell culture plate: Poly-D-lysine-coated, black 96 well plates having a clear base (96 well black/clear plate, BD Biosciences, Heidelberg, Germany) were additionally coated with laminin (Gibco Invitrogen GmbH, Karlsruhe, Germany), the laminin being diluted with PBS (Ca—Mg-free PBS, Gibco Invitrogen GmbH, Karlsruhe, Germany) to a concentration of 100 μg/mL. Aliquots having a laminin concentration of 100 μg/mL were removed and stored at −20° C. The aliquots were diluted with PBS in a ratio of 1:10 to 10 μg/mL laminin and in each case 50 μL of the solution were pipetted into a recess in the cell culture plate. The cell culture plates were incubated for at least two hours at 37° C., the excess solution was removed by suction-filtration and the recesses were each washed twice with PBS. The coated cell culture plates were stored with excess PBS which was not removed until just before the feeding of the cells.
Preparation of the Cells:
The vertebral column was removed from decapitated rats and placed immediately into cold HBSS buffer (Hank's buffered saline solution, Gibco Invitrogen GmbH, Karlsruhe, Germany), i.e. buffer located in an ice bath, mixed with 1% by volume (percent by volume) of an AA solution (antibiotic/antimyotic solution, PAA, Pasching, Austria). The vertebral column was cut longitudinally and removed together with fasciae from the vertebral canal. Subsequently, the dorsal root ganglia (DRG) were removed and again stored in cold HBSS buffer mixed with 1% by volume of an AA solution. The DRG, from which all blood remnants and spinal nerves had been removed, were transferred in each case to 500 μL of cold type 2 collagenase (PAA, Pasching, Austria) and incubated for 35 minutes at 37° C. After the addition of 2.5% by volume of trypsin (PAA, Pasching, Austria), incubation was continued for 10 minutes at 37° C. After complete incubation, the enzyme solution was carefully pipetted off and 500 μL of complete medium were added to each of the remaining DRG. The DRG were in each case suspended several times, drawn through cannulae No. 1, No. 12 and No. 16 using a syringe and transferred to a 50 mL Falcon tube which was filled up to 15 mL with complete medium. […]

Row | Structure (SMILES) | inhibition at 10 µM (vanilloid receptor (VR1)) | activation at 10 µM (vanilloid receptor (VR1)) | inhibition at 10 µM [1] | activation at 10 µM [1]
1 | O=C(Nc1ccccc1)N1CCC2(CC1)CC(c1ccc(Cl)cc1)=NO2 [Compound 3, 3-(4-chlorophenyl)-1-oxa-2,8-diazaspiro[4.5]dec-2-ene-8-carboxylic acid phenylamide] | 13.4% | 0.01% | 43.8% | -0.73%
2 | CCCc1ccccc1NC(=O)N1CCC2(CC1)CC(c1ccccc1)=NO2 [Compound 22, 3-phenyl-1-oxa-2,8-diazaspiro[4.5]dec-2-ene-8-carboxylic acid-(2-propylphenyl)amide] | 10.1% | -0.14% | 40.3% | -0.73%
3 | COc1cccc(C2=NOC3(CCN(C(=O)Nc4ccc(Cl)cc4)CC3)C2)c1 [Compound 39, 3-(3-methoxyphenyl)-1-oxa-2,8-diazaspiro[4.5]dec-2-ene-8-carboxylic acid-(4-chlorophenyl)amide] | 25% | -0.14% | 74% | 0.11%
4 | CC(C)(C)c1ccc(C2=NOC3(CCN(C(=O)Nc4ccc(Cl)cc4)CC3)C2)cc1 [Compound 42, 3-(4-tert-butylphenyl)-1-oxa-2,8-diazaspiro[4.5]dec-2-ene-8-carboxylic acid-(4-chlorophenyl)amide] | 2.57% | -0.22% | 39.9% | -0.73%
5 | O=C(Nc1ccc(I)cc1)N1CCC2(CC1)CC(c1ccccc1)=NO2 [Compound 44, 3-phenyl-1-oxa-2,8-diazaspiro[4.5]dec-2-ene-8-carboxylic acid-(4-iodophenyl)amide] | -4.4% | -0.15% | 85.6% | -0.73%
6 | CC(C)(C)c1ccc(C2=NOC3(CCN(C(=O)Nc4ccc(I)cc4)CC3)C2)cc1 [Compound 45, 3-(4-tert-butylphenyl)-1-oxa-2,8-diazaspiro[4.5]dec-2-ene-8-carboxylic acid-(4-iodophenyl)amide] | 0.17% | -0.04% | 55.5% | -0.73%
7 | COc1ccc(NC(=O)N2CCC3(CC2)CC(c2cccc(OC)c2)=NO3)cc1 [Compound 47, 3-(3-methoxyphenyl)-1-oxa-2,8-diazaspiro[4.5]dec-2-ene-8-carboxylic acid-(4-methoxyphenyl)amide] | 11.4% | 0.01% | 48.3% | 0.92%
8 | CSc1ccccc1NC(=O)N1CCC2(CC1)CC(c1ccc(C(C)(C)C)cc1)=NO2 [Compound 56, 3-(4-tert-butylphenyl)-1-oxa-2,8-diazaspiro[4.5]dec-2-ene-8-carboxylic acid-(2-methylsulphanylphenyl)amide] | 16.4% | -0.22% | 47.3% | -0.04%
9 | COc1cccc(C2=NOC3(CCN(C(=O)Nc4cccc(SC)c4)CC3)C2)c1 [Compound 59, 3-(3-methoxyphenyl)-1-oxa-2,8-diazaspiro[4.5]dec-2-ene-8-carboxylic acid-(3-methylsulphanylphenyl)amide] | 2.09% | 0.01% | 48.6% | 0.51%
10 | COc1cccc(C2=NOC3(CCN(C(=O)Nc4ccc(SC)cc4)CC3)C2)c1 [Compound 65, 3-(3-methoxyphenyl)-1-oxa-2,8-diazaspiro[4.5]dec-2-ene-8-carboxylic acid-(4-methylsulphanylphenyl)amide] | -10.8% | -0.07% | 80.5% | 0.08%
11 | CSc1ccc(NC(=O)N2CCC3(CC2)CC(c2ccc(C)cc2)=NO3)cc1 [Compound 69, 3-p-tolyl-1-oxa-2,8-diazaspiro[4.5]dec-2-ene-8-carboxylic acid-(4-methylsulphanylphenyl)amide] | 7.01% | -0.32% | 87.2% | -0.47%

The next lines start with the values.

Row | inhibition at 10 µM (vanilloid receptor (VR1)) | activation at 10 µM (vanilloid receptor (VR1)) | inhibition at 10 µM [1] | activation at 10 µM [1] | Structure (SMILES)
12 | 5.49% | 0.1% | 95.4% | 3.81% | COc1cccc(C2=NOC3(CCN(C(=O)Nc4ccc(C(C)C)cc4)CC3)C2)c1 [Compound 77, 3-(3-methoxyphenyl)-1-oxa-2,8-diazaspiro[4.5]dec-2-ene-8-carboxylic acid-(4-isopropylphenyl)amide]
13 | 11.8% | 0.11% | 95% | 0.02% | CC(C)c1ccc(NC(=O)N2CCC3(CC2)CC(c2ccccc2)=NO3)cc1 [Compound 78, 3-phenyl-1-oxa-2,8-diazaspiro[4.5]dec-2-ene-8-carboxylic acid-(4-isopropylphenyl)amide]
14 | -17.6% | -0.35% | 46.5% | 0.38% | CC(C)c1ccc(NC(=O)N2CCC3(CC2)CC(c2ccc(Cl)cc2)=NO3)cc1 [Compound 79, 3-(4-chlorophenyl)-1-oxa-2,8-diazaspiro[4.5]dec-2-ene-8-carboxylic acid-(4-isopropylphenyl)amide]
15 | 3.6% | 0.89% | 62.1% | -0.47% | CC(C)c1ccc(NC(=O)N2CCC3(CC2)CC(c2ccc(C(C)(C)C)cc2)=NO3)cc1 [Compound 80, 3-(4-tert-butylphenyl)-1-oxa-2,8-diazaspiro[4.5]dec-2-ene-8-carboxylic acid-(4-isopropylphenyl)amide]
16 | – | – | 103% | 1% | FS(F)(F)(F)(F)c1ccc(NC(=S)N2CCC3(CC2)CC(c2ccccc2)=NO3)cc1 [Compound 330, 3-phenyl-1-oxa-2,8-diazaspiro[4.5]dec-2-ene-8-thiocarboxylic acid-(4-pentafluorosulphanylphenyl)amide]
